Legend:
Type in all cases: in vivo, BALB/c mice
[1] = system: ADR-induced nephropathy; test: Kidney histopathology (H/E and PAS staining, mesangial expansion) in the Adriamycin nephropathy model; conditions: ADR mice, 40 mg/kg/day s.c. (group 3), 10 weeks
Procedure: (§1) Experimental Protocol: 6 animals (BALB/c mice) per group of 6-7 weeks of age were used. Nephropathy was induced in all animals, except group 1 (normal control), with Adriamycin (ADR, 11 mg/kg, i.v., single dose) at dose volume of 6 ml/kg. Normal saline (0.9%) was used as vehicle for the reference and test compounds. Treatment was started 24 hours after Adriamycin injection. Groups of animals (n=6) were treated subcutaneously with vehicle, HBCD, Polymer A and Polymer B at the doses and regimens shown in FIG. 10, for 10 weeks. At the end of the study, animals were sacrificed by CO2 exposure, blood samples and kidneys were collected for the estimation of various biomarkers in serum.
Histopathology: At the end of the study, kidney samples were collected from each animal, fixed in 10% NBF (Neutral Buffered […]) and subjected to histopathology. Periodic acid-Schiff (PAS) or Hematoxylin and Eosin (H/E) staining of 4 micron-thick tissue sections was performed according to the standard protocols. Mesangial expansion area was determined based on the area of PAS staining.

[2] = Body weight in the Adriamycin nephropathy (FSGS) dose response/frequency study; conditions: ADR mice, 40 mg/kg/day s.c., 10 weeks, compared to normal mice
Procedure: as §1
Body weights: Body weights were measured at the beginning of study and weekly throughout for ten weeks (FIG. 11) to provide a general assessment of rodent health after therapy.

[3] = system: ADR-induced nephropathy; test: Serum blood urea nitrogen (BUN) in the Adriamycin nephropathy (FSGS) model; conditions: ADR mice, 40 mg/kg/day s.c., end of study
Procedure: as §1
Serum Analysis: Serum samples were analysed in an Automated Clinical Chemistry Analyzer EM360, Transasia Bio-medicals Ltd, for albumin and creatinine. • (a) Blood Urea Nitrogen (BUN) assay to assess the level of kidney function was analysed by the GLDH Urease method using an Erba standard BUN kit. (FIG. 13). Administration of ADR to induce nephropathy increased blood urea nitrogen levels as one would expect from an impaired kidney. […] The combination of data from these studies serves to illustrate the potential of the polymers of the present disclosure as treatment options for kidney disease compared to known cholesterol clearance compounds.

Which “kidney histopathology (glomeruli appearance)” value [1] does the source give for hydroxypropyl β-cyclodextrin [HBCD] here?
Its value is “glomeruli that are normal in appearance”.

What about the mean body weight [2] of the same substance?
The mean body weight was “largest drop in mean body weight without any substantial rebound”.

What about the “serum blood urea nitrogen (BUN) level” value [3] of the same substance?
The value was “BUN levels return to that found for the control group”.

— patent US10869884B2, “Cyclodextrin based polymers, methods, compositions and applications thereof” (ATEN PORUS LIFESCIENCES, priority 2016, dated 2020)
